The subject of assay [1] is NANOS3-mVenus PSCs (hiPSCs). Description: Primordial germ cell (hPGCLC) induction via TF overexpression in hiPSCs. The class given is cell-based, human. The following applies: for effect on NANOS3+ hPGCLC yield: doxycycline induction, monolayer, FIG. 1B. The source says:
FIGS. 1A-1B show identification of overexpressed transcription factors (TFs) that drive enhancement of NANOS3+ primordial germ cell yield.
A method was designed for high yield germ cell formation from stem cells in monolayer culture conditions, which is described in more detail below and in FIG. 4 with a culture media composition described in Table 1. The TFs DLX5, HHEX, or FIGLA or all three together, were integrated to iPSCs via piggyBac or lentivirus and a purified pool was selected through antibiotic addition. For germ cell induction, 2,500 TF-containing iPSCs per cm^2 were seeded in mTeSR™ medium on Corning® Matrigel® Matrix for six hours. After about 12-18 hours, Media #1 was removed and the cells were again washed, and Media #2 was added. The cells were then grown for about 24 hours, after which Media #2 was replaced by Media #3. The cells were again grown for about 24 hours, after which Media #3 was replaced by Media #4. Finally, the cells were again grown for about 24 hours, at which point primordial germ cells was harvested and isolated via FACS.
Expression plasmids containing TF cDNAs under the control of a doxycycline-inducible promoter were integrated into iPSCs using PiggyBac transposase. To perform the integration, ˜50-100 fmol of TF cDNA plasmid, ˜150-250 ng PiggyBac transposase expression plasmid, and ˜100,000-200,000 iPSCs were combined in Lonza P3 buffer and electroporated using a Lonza Nucleofector 4D. After electroporation, cells were seeded in 24-well plates in mTeSR™ Plus Medium+˜8-12 μM Y-27632. Selection with the appropriate agent (typically puromycin) commenced 48 hours after electroporation and continued for ˜3-5 days. Cells were then passaged without drug selectin for ˜3 days to allow for non-integrated plasmid loss. Finally, cells were again passaged under drug selection to generate a pure, selected integrant pool. Presence and approximate copy number of integrated TF plasmids was confirmed by qPCR on genomic DNA. For oogonia, pools of hiPSCs were utilized, not single cell selected clones. Average copy number was 8-10.
hiPSCs containing integrated TF expression plasmids were cultured in mTeSR 1 medium on Matrigel. For induction in monolayer, hiPSCs are disassociated to single cells using Accutase and seeded on Matrigel or vitronectin XF coated plates at a density of 2,500-3,000 cells per cm^2 in mTeSR™ media+˜8-10 μM Y-27632 and ˜0.5-3 μg/ml doxycycline for about 6 hours. Media was then removed and washed with dPBS and replaced with aRB27 media #1 (see components list in detailed protocol). After about 12-18 hours of induction, media #1 is removed and washed with dPBS and replaced by media #2. After about 24 hours, media #2 is removed and replaced by media #3. […]

The test system of assay [2] is SW480 cells. The following applies: Huang et al.; cited from earlier work.
For assay [3], the target named is VEGFR2 (Homo sapiens, UniProt P35968). The following applies: cited from earlier work.
In assay [4] the test system is PDGFR. The following applies: cited from earlier work.
For assay [5], the target named is c-Src (Homo sapiens, UniProt P12931). The following applies: cited from earlier work.
In assay [6] the test system is MEK. The following applies: cited from earlier work.
Assay [7] deals with PKC. The following applies: cited from earlier work.

What is called IC50 is the concentration needed to halve the response being measured.

c-Src, sequence (P12931 whole entry, species assumed): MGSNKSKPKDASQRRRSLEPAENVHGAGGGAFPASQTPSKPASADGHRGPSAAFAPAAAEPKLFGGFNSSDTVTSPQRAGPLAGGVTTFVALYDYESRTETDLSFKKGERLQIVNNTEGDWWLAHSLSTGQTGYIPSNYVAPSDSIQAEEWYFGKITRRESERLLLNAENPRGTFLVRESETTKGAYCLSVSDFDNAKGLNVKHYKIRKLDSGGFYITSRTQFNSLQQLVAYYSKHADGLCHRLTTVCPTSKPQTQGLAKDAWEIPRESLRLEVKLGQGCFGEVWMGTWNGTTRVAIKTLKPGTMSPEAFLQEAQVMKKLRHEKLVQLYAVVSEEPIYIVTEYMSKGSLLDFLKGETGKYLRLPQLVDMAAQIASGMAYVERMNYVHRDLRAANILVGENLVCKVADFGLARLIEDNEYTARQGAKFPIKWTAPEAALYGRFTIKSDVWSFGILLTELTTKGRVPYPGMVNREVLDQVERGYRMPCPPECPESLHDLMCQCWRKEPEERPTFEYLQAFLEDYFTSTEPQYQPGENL
VEGFR2, sequence (P35968 20-1356, species assumed): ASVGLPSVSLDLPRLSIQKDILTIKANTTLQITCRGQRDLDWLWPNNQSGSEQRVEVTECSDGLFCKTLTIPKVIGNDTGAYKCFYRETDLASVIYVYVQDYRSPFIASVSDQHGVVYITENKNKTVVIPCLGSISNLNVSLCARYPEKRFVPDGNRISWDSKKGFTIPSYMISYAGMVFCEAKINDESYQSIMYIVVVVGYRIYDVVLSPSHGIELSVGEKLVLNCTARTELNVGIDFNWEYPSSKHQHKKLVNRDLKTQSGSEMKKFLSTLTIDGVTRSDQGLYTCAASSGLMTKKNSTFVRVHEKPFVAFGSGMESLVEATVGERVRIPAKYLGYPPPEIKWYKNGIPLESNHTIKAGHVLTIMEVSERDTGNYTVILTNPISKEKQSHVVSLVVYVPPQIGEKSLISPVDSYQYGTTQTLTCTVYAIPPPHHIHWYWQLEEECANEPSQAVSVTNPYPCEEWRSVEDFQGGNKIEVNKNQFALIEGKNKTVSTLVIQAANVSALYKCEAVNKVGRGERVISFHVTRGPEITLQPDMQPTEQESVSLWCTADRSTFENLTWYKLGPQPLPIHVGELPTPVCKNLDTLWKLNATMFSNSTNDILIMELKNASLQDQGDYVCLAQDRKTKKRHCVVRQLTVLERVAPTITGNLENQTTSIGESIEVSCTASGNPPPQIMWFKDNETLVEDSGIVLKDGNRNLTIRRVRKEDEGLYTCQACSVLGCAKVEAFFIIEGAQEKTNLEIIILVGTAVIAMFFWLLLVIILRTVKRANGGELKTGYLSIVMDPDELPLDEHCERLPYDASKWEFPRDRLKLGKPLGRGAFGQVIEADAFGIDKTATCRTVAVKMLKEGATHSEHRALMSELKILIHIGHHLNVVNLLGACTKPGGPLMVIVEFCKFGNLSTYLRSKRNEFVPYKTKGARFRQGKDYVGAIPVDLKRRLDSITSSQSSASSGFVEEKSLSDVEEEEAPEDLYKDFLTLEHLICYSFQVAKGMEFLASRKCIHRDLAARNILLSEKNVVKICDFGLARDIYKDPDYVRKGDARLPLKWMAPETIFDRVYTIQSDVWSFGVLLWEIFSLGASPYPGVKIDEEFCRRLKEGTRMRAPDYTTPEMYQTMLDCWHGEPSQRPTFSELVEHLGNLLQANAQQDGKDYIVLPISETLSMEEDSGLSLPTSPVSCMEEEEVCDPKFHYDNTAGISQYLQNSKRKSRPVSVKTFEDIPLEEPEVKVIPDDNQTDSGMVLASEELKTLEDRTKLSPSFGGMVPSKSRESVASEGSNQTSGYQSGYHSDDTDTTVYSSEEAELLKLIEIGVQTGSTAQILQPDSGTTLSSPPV

As for “FIGLA: Folliculogenesis Specific BHLH Transcription Factor (SEQ ID NO: 1), overexpressed in PSCs from a doxycycline-inducible polynucleotide”, the “effect on NANOS3+ hPGCLC yield” value in assay [1] is “enhanced”.

Consider “DLX5: Distal-Less Homeobox 5 transcription factor (SEQ ID NO: 2), overexpressed in PSCs from a doxycycline-inducible polynucleotide”, for which the “germ cell formation rescue compared to wildtype” value in assay [1] (absence of BMP4) came out at 50%. The “effect on NANOS3+ hPGCLC yield” value in assay [1] was “enhanced”. The “activity (hPGCLC yield) retained without hBMP4” value in assay [1] (without hBMP4, compared to normal condition, FIG. 3A) is listed as 40%.

Turning to `Oc1nc(-c2ccc(C(F)(F)F)cc2)nc2c1CSCC2` [XAV939], the “effect on β-catenin” value in assay [2] is recorded as “promotes the degradation of β-catenin”.

As for `CCN(CC)CCCCNc1ncc2cc(-c3cc(OC)cc(OC)c3)c(NC(=O)NC(C)(C)C)nc2n1` [PD 173074], the IC50 is roughly 100 nM in assay [3]; roughly 17.6 µM in assay [4]; roughly 19.8 µM in assay [5]; greater than 50 µM in assay [6]; greater than 50 µM in assay [7].

B1: HHEX: Hematopoietically Expressed Homeobox transcription factor (SEQ ID NO: 3), overexpressed in PSCs from a doxycycline-inducible polynucleotide (protein)
chain: MQYPHPGPAAGAVGVPLYAPTPLLQPAHPTPFYIEDILGRGPAAPTPAPTLPSPNSSFTSLVSPYRTPVYEPTPIHPAFSHHSAAALAAAYGPGGFGGPLYPFPRTVNDYTHALLRHDPLGKPLLWSPFLQRPLHKRKGGQVRFSNDQTIELEKKFETQKYLSPPERKRLAKMLQLSERQVKTWFQNRRAKWRRLKQENPQSNKKEELESLDSSCDQRQDLPSEQNKGASLDSSQCSPSPASQEDLESEISEDSDQEVDIEGDKSYFNAG
Consider B1, for which, in assay [1], the “effect on NANOS3+ hPGCLC yield” value is reported as “enhanced”.

These data come from patent US20250207091A1, “METHODS AND COMPOSITIONS FOR PRODUCING PRIMORDIAL GERM CELL-LIKE CELLS” (President and Fellows of Harvard College, priority 2022, published 2025).
